Where a name gives a salt, the structure may show the parent alone.
Columns and labels:
[1] = tested on: IL-6 production by HUVEC cells; assay: Inhibition of histamine-induced IL-6 mRNA production (RT-PCR against HPRT); type: cell-based, human; settings: 5 hours
Excerpt: Various assays also exist for identifying a highest pharmacological activity enantiomer of a given pharmacologically active agent. Where the pharmaceutical activity is as a histamine antagonist, IL-6 production by HUVEC cells is a cell biomarker of histamine activity and is used to assess the relative antagonistic activity of prospective H1 blockers. IL-6 production in human endothelial cells is known to be induced by histamine due to H1 and H2 receptor binding with H1 the dominant effect. Delneste, et al. As H1 antagonism is directly linked to reduced emesis during motion sickness treatment, this assay serves as an in vitro methodology for the selection of potential motion sickness and antihistamine candidates. Realtime RT-PCR analysis of IL-6 mRNA synthesis in HUVEC cells stimulated with histamine is employed as an in vitro assay for the analysis of the relative efficacy of potential antihistaminic agents.
A preferred assay for measuring activity of phenothiazine and other histamine antagonists comprises: providing at least a first viable culture and a second viable culture comprising Huvec cells; exposing the first viable culture to a first combination comprising histamine and the (+)-enantiomer of the phenothiazine under conditions effective to inhibit IL-6 mRNA expression; exposing the second viable culture to a combination comprising histamine and the (−)-enantiomer of the phenothiazine under conditions effective to inhibit IL-6 mRNA expression; measuring inhibition of IL-6 mRNA expression induced by the first combination and the second combination after at least four hours to identify a (+)-enantiomer inhibition value and a (−)-enantiomer inhibition value; and selecting as the highest pharmacological activity enantiomer the enantiomer having the greater inhibition value selected from the group consisting of the (+)-enantiomer inhibition value and the (−)-enantiomer inhibition value.
Huvec cells were plated and grown to confluence in 6-well plates. […] Total RNA was isolated using Tri-reagent and subjected to reverse transcription polymerase chain reaction (RT-PCR) analysis of IL-6 production using semiquantitative analysis against HPRT expression (control gene).
The procedures of Example 3 were repeated using the (+)-enantiomer (#2) and the (−)-enantiomer (#1) of EPZ at 10^−5 molar and 10^−6 molar, and TPZ at 10^−5 molar.

[2] = encapsulated in a variety of shell materials, administered to beagles; cited from earlier work
L929 lung fibroblast = settings: shown by previous studies; cited from earlier work

CC(CN1c2ccccc2Sc2ccccc21)N(C)C (racemic) [Promethazine, promethazine hydrochloride]
inhibition of histamine stimulation of IL-6 production ([1]; 10^−5 M with Histamine 10^−4 M, relative to cells stimulated only with histamine): 50%
nasal irritation [2]: severe nasal irritation was observed

CC(CN1c2ccccc2Sc2ccccc21)N(C)C.Cl (single isomer, unassigned; (+)) [(+) enantiomer, (+)-Promethazine hydrochloride]
IL-6 production reduced to % of the histamine stimulated cell ([1]; 10^−5 M with Histamine 10^−4 M): 90%

CC(CN1c2ccccc2Sc2ccccc21)N(C)C.Cl (single isomer, unassigned; (-)) [(−) enantiomer, (−)-Promethazine hydrochloride]
reduction in IL-6 production ([1]; 10^−5 M with Histamine 10^−4 M): 50%

C=C(C)C(=O)OCC(O)COc1ccc(C(C)(C)c2ccc(OCC(O)COC(=O)C(=C)C)cc2)cc1 (stereo not drawn) [BisGMA]
cytotoxicity of control in this assay (L929 lung fibroblast): significantly cytotoxic

NCCc1c[nH]cn1 [Histamine]
increase in IL-6 mRNA production ([1]; Histamine alone 10^−4 M, versus endogenous production): 50%

Source: US20050220888A1, “Controlled release compositions and methods for using same” (priority 2002, published 2005)
